ChEMBL document CHEMBL4819024, “Synthesis and evaluation of andrographolide derivatives as potent anti-osteoporosis agents in vitro and in vivo” (Eur J Med Chem, 2021)
Active and inactive are the calls of the source. The rule behind the calls is not given here.

How the values were obtained:
BMMC [1] = assay: Anti-osteoporosis activity in C57BL/6 mouse BMM cells assessed as inhibition of M-CSF/RANKL-induced osteoclastogenesis by measuring reduction in multinucleated TRAP+ cells incubated for 5 days with media replenishment for every 48 hrs measured by TRAP-staining based analysis; format: functional, cell-based; conditions: C57BL/6, BMMC
[2] = Cytotoxicity against C57BL/6 mouse BMM cells assessed as reduction in cell viability measured after 48 hrs in presence of M-CSF by CCK8 assay; format: cell-based, BMMC; conditions: BMM cells (bone marrow-derived)
Mus musculus [3] = assay: Antiosteoporotic activity against OVX-induced bone loss C57BL/6 mouse model assessed as increase in trabecular thickness in femoral metaphysis at 10 mg/kg, po QD for 4 weeks; format: functional, organism-based; conditions: dose 10.0 mg/kg/day
Mus musculus [4] = assay: Antiosteoporotic activity against OVX-induced bone loss C57BL/6 mouse model assessed as decrease in trabecular spacing in femoral metaphysis at 10 mg/kg, po QD for 4 weeks; format: functional, organism-based; conditions: dose 10.0 mg/kg/day
Mus musculus [5] = assay: Antiosteoporotic activity against OVX-induced bone loss C57BL/6 mouse model assessed as decrease in ACP5 level in serum at 10 mg/kg, po QD for 4 weeks; format: functional, organism-based; conditions: dose 10.0 mg/kg/day
Mus musculus [6] = assay: Antiosteoporotic activity against OVX-induced bone loss C57BL/6 mouse model assessed as increase in trabecular number in femoral metaphysis at 10 mg/kg, po QD for 4 weeks; format: functional, organism-based; conditions: dose 10.0 mg/kg/day
Mus musculus [7] = assay: Antiosteoporotic activity against OVX-induced bone loss C57BL/6 mouse model assessed as increase in bone volume/total bone volume in femoral metaphysis at 10 mg/kg, po QD for 4 weeks; format: functional, organism-based; conditions: dose 10.0 mg/kg/day
BMMC [8] = assay: Anti-osteoporosis activity in C57BL/6 mouse BMM cells assessed as inhibition of M-CSF/RANKL-induced bone resorption by measuring suppression of reabsorbing pits formation after 48 hrs by hydroxyapatite assay using Leica inverted microscope; format: functional, cell-based; conditions: dose 1-10 µM

Row | Compound | IC50 (BMMC [1]) | further results
1 | C=C1CC[C@H]2[C@@](C)(CC[C@@H](O)[C@@]2(C)C(=O)NCCc2cccs2)[C@@H]1/C=C/C1=CCOC1=O | > 30000 nM | –
2 | C=C1CC[C@@H]2[C@](C)(CNCc3ccc(O)c(O)c3)[C@H](O)CC[C@@]2(C)[C@@H]1/C=C/C1=CCOC1=O | 9440 nM | –
3 | C=C1CC[C@@H]2[C@](C)(CNCCc3ccc(C(F)(F)F)cc3)[C@H](O)CC[C@@]2(C)[C@@H]1/C=C/C1=CCOC1=O | 2980 nM | –
4 | C=C1CC[C@@H]2[C@](C)(CO)[C@H](O)CC[C@@]2(C)[C@@H]1CCC1C(=O)OC[C@H]1O (stereo partly drawn) | > 30000 nM | CC50 at 48 h [2]: > 30000 nM
5 | C=C1CC[C@@H]2[C@](C)(CNCc3ccccc3)[C@H](O)CC[C@@]2(C)[C@@H]1/C=C/C1=CCOC1=O | 960 nM | –
6 | C=C1CC[C@@H]2[C@](C)(CNCc3ccncc3)[C@H](O)CC[C@@]2(C)[C@@H]1/C=C/C1=CCOC1=O | 2030 nM | –
7 | C=C1CC[C@@H]2[C@](C)(CNCc3ccc(C#N)cc3)[C@H](O)CC[C@@]2(C)[C@@H]1/C=C/C1=CCOC1=O | 1130 nM | –
8 | C=C1CC[C@@H]2[C@](C)(CNCCc3cccs3)[C@H](O)CC[C@@]2(C)[C@@H]1/C=C/C1=CCOC1=O | 3020 nM | –
9 | C=C1CC[C@@H]2[C@](C)(CNCCc3ccc(F)cc3)[C@H](O)CC[C@@]2(C)[C@@H]1/C=C/C1=CCOC1=O | 480 nM | –
10 | C=C1CC[C@H]2[C@@](C)(CC[C@@H](O)[C@@]2(C)C(=O)NCc2ccc(OC)cc2)[C@@H]1/C=C/C1=CCOC1=O | 6530 nM | –
11 | C=C1CC[C@@H]2[C@](C)(CNCc3ccc(Br)cc3)[C@H](O)CC[C@@]2(C)[C@@H]1/C=C/C1=CCOC1=O | 430 nM | –
12 | C=C1CC[C@@H]2[C@](C)(CNCc3ccc([N+](=O)[O-])cc3)[C@H](O)CC[C@@]2(C)[C@@H]1/C=C/C1=CCOC1=O | 1340 nM | –
13 | C=C1CC[C@H]2[C@@](C)(CC[C@@H](O)[C@@]2(C)C(=O)NCCc2ccccc2)[C@@H]1/C=C/C1=CCOC1=O | > 30000 nM | –
14 | C=C1CC[C@H]2[C@@](C)(CC[C@@H](O)[C@@]2(C)C(=O)NCc2ccc(Br)cc2)[C@@H]1/C=C/C1=CCOC1=O | 3450 nM | –
15 | C=C1CC[C@@H]2[C@](C)(CNCCc3ccccc3)[C@H](O)CC[C@@]2(C)[C@@H]1/C=C/C1=CCOC1=O | 1020 nM | –
16 | C=C1CC[C@@H]2[C@](C)(CNCc3ccc(Cl)cc3)[C@H](O)CC[C@@]2(C)[C@@H]1/C=C/C1=CCOC1=O | 420 nM | –
17 | C=C1CC[C@@H]2[C@](C)(CO)[C@H](O)CC[C@@]2(C)[C@@H]1C/C=C1\C=COC1=O | 2770 nM | CC50 at 48 h [2]: 20600 nM
18 | C=C1CC[C@@H]2[C@](C)(CO)[C@H](O)CC[C@@]2(C)[C@@H]1C/C=C1/C(=O)OC[C@H]1O [ANDROGRAPHOLIDE] | 1010 nM | Activity (Mus musculus [3]): Active; Activity (Mus musculus [4]): Active; Activity (Mus musculus [5]): Active; Activity (Mus musculus [6]): Active; Activity (Mus musculus [7]): Active; Activity (BMMC [8]): Active; CC50 at 48 h [2]: 10300 nM

Row | Compound | IC50 (BMMC [1]) | further results
19 | C=C1CC[C@@H]2[C@](C)(CNCCc3cccc(OC)c3)[C@H](O)CC[C@@]2(C)[C@@H]1/C=C/C1=CCOC1=O | 5450 nM | –
20 | C=C1CC[C@@H]2[C@](C)(CNCCc3ccc(OC)cc3)[C@H](O)CC[C@@]2(C)[C@@H]1/C=C/C1=CCOC1=O | 1880 nM | –
21 | C=C1CC[C@@H]2[C@](C)(CNCc3nccs3)[C@H](O)CC[C@@]2(C)[C@@H]1/C=C/C1=CCOC1=O | 700 nM | –
22 | NCCCC(O)(P(=O)(O)O)P(=O)(O)O [ALENDRONATE SODIUM] | 1710 nM | –
23 | C=C1CC[C@@H]2[C@](C)(CNCc3ccco3)[C@H](O)CC[C@@]2(C)[C@@H]1/C=C/C1=CCOC1=O | 1830 nM | –
24 | C=C1CC[C@@H]2[C@](C)(CNCc3ccc4c(c3)CC=N4)[C@H](O)CC[C@@]2(C)[C@@H]1/C=C/C1=CCOC1=O | 550 nM | –
25 | C=C1CC[C@@H]2[C@](C)(CNCCc3ccc(C)cc3)[C@H](O)CC[C@@]2(C)[C@@H]1/C=C/C1=CCOC1=O | 870 nM | –
26 | C=C1CC[C@@H]2[C@](C)(CNCc3ccc(OC)cc3)[C@H](O)CC[C@@]2(C)[C@@H]1/C=C/C1=CCOC1=O | 750 nM | –
27 | C=C1CC[C@@H]2[C@](C)(CNCc3ccc(C)cc3)[C@H](O)CC[C@@]2(C)[C@@H]1/C=C/C1=CCOC1=O | 740 nM | –
28 | C=C1CC[C@@H]2[C@](C)(CNCc3cccc(OC)c3)[C@H](O)CC[C@@]2(C)[C@@H]1/C=C/C1=CCOC1=O | 780 nM | –
29 | C=C1CC[C@H]2[C@@](C)(CC[C@@H](O)[C@@]2(C)C(=O)NCCc2ccc(OC)cc2)[C@@H]1/C=C/C1=CCOC1=O | > 30000 nM | –
30 | C=C1CC[C@H]2[C@@](C)(CC[C@@H](O)[C@@]2(C)C(=O)NCCc2ccc(F)cc2)[C@@H]1/C=C/C1=CCOC1=O | > 30000 nM | –
31 | C=C1CC[C@@H]2[C@](C)(CNCc3ccc(OC)c(OC)c3)[C@H](O)CC[C@@]2(C)[C@@H]1/C=C/C1=CCOC1=O | 3740 nM | –
32 | C=C1CC[C@@H]2[C@](C)(CO)[C@H](O)CC[C@@]2(C)[C@@H]1/C=C/C1=CCOC1=O | 8340 nM | CC50 at 48 h [2]: > 30000 nM
33 | C=C1CC[C@H]2[C@@](C)(CC[C@@H](O)[C@@]2(C)C(=O)NCc2ccccc2)[C@@H]1/C=C/C1=CCOC1=O | 19400 nM | –
34 | C=C1CC[C@@H]2[C@](C)(CNCc3cccs3)[C@H](O)CC[C@@]2(C)[C@@H]1/C=C/C1=CCOC1=O | 1070 nM | –
35 | C=C1CC[C@@H]2[C@](C)(CO)[C@H](O)CC[C@@]2(C)[C@@H]1CC=O | > 30000 nM | CC50 at 48 h [2]: > 30000 nM
36 | C=C1CC[C@@H]2[C@](C)(CO)[C@H](O)CC[C@@]2(C)[C@@H]1C/C=C(/C(=O)O)[C@H](O)CO | > 30000 nM | CC50 at 48 h [2]: > 30000 nM
